From patent US10899988B1, “Octane hyperboosting in fuel blends” (National Technology & Engineering Solutions of Sandia, LLC, priority 2018, dated 2021)

Experiments:
[1] = Co-optima fuel property database, cited from earlier work; for Water Solubility: measured at 25° C.
[2] = ASTM D3703 test for hydroperoxides (peroxide number); format: physicochemical; settings: silica column processed sample; testing range 0-50 mg/kg
Experimental: Potential polar contaminants, such as peroxides and hydrates, were removed from the neat prenol sample using a silica column following the protocol outlined by Mueller et al. (see, e.g., Mueller C J et al., “Diesel surrogate fuels for engine testing and chemical-kinetic modeling: compositions and properties,” Energy Fuels 2016; 30:1445-61). RON testing of this sample was conducted to confirm that these contaminants were not affecting the RON measurement. The sample containers were stored at 85% capacity and sealed with parafilm to limit peroxide formation after the silica column treatment; testing was performed within 10 days of the treatment. The peroxide number of the silica column treated sample (sample processed as described above) was tested by the ASTM […] method at SwRI. This method quantified the concentration hydroperoxides in a sample within the range of 0-50 mg/kg (ppm).

Compound: O=C1CCCC1 [Cyclopentanone]
- DH Vap [1]: 504 kJ/kg
- Energy Density [1]: 30.2 mJ/L
- Water Solubility [1]: 61 mg/mL

Compound: CCO [Ethanol]
- DH Vap [1]: 919 kJ/kg
- Energy Density [1]: 20.2 mJ/L

Compound: CC(C)CO [Isobutanol]
- DH Vap [1]: 685 kJ/kg
- Energy Density [1]: 26.6 mJ/L

Compound: CC(C)O [Isopropanol]
- DH Vap [1]: 744 kJ/kg
- Energy Density [1]: 24.1 mJ/L

Compound: CC(C)=CCO [Prenol, 3-methyl-2-buten-1-ol]
- hydroperoxides (ASTM D3703) [2]: non-detect
- DH Vap [1]: 512 kJ/kg
- Water Solubility [1]: 41 mg/mL

Compound: n-propanol
- DH Vap [1]: 789 kJ/kg
- Energy Density [1]: 24.7 mJ/L
